molecular target: T1, DLK (Homo sapiens, UniProt Q12852); details: read-out: DLK (Ki) μM; TR-FRET; 5 nM GST-tagged DLK (catalytic domain aa 1-520), 40 nM HIS-MKK4 K131M substrate, 30 μM ATP, 60 minutes
T1 sequence (Q12852 1-520): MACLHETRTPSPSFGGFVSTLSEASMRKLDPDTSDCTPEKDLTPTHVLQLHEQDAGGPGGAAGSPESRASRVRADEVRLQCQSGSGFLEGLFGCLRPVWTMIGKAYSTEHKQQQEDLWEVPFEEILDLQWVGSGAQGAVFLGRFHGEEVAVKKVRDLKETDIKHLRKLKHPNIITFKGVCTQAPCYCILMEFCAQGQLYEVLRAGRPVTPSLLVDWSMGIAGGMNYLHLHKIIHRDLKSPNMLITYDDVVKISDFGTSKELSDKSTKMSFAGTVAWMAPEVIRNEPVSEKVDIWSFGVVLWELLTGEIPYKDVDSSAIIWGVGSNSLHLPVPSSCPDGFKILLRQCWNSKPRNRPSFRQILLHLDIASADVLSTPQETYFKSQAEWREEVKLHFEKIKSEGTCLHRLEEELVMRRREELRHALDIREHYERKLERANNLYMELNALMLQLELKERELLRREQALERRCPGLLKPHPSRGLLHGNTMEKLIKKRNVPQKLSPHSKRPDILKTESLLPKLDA

Ki [µM]	SMILES
0.09	COCCN1C[C@@H]2[C@H](C1)[C@H]2c1cc(-c2cnc(N)c(Cl)c2)nn1CC1CC1(F)F (stereo partly drawn) [Compound 121, 3-chloro-5-(1-((2,2-difluorocyclopro-pyl)methyl)-5-((1R,5S,6r)-3-(2-meth-oxyethyl)-3-azabicyclo[3.1.0]hexan-6-yl)-1H-pyrazol-3-yl)pyridin-2-amine]
0.0079	COCCN1C[C@@H]2[C@H](C1)[C@H]2c1cc(-c2cnc(N)c(C(F)(F)F)c2)nn1CC1CC1 [Compound 122, 5-(1-(cyclopropylmethyl)-5-((1R,5S, 6r)-3-(2-methoxyethyl)-3-azabicyclo [3.1.0]hexan-6-yl)-1H-pyrazol-3-yl)-3-(trifluoromethyl)pyridin-2-amine]
0.027	COCCN1C[C@@H]2[C@H](C1)[C@H]2c1cc(-c2cnc(N)c(Cl)c2)nn1CC1CC1 [Compound 123, 3-chloro-5-(1-(cyclopropylmethyl)-5-((1R,5S,6r)-3-(2-methoxyethyl)-3-aza-bicyclo[3.1.0]hexan-6-yl)-1H-pyra-zol-3-yl)pyridin-2-amine]
0.027	COCCN1C[C@@H]2[C@H](C1)[C@H]2c1cc(-c2cnc(N)c(C(F)(F)F)c2)nn1CC1CCC1 [Compound 124, 5-(1-(cyclobutylmethyl)-5-((1R,5S,6r)-3-(2-methoxyethyl)-3-azabicyclo [3.1.0]hexan-6-yl)-1H-pyrazol-3-yl)-3-(trifluoromethyl)pyridin-2-amine]
0.0058	COCCN1C[C@@H]2[C@H](C1)[C@H]2c1cc(-c2cnc(N)c(OC(F)(F)F)c2)nn1C(C)C [Compound 125, 5-(1-isopropyl-5-((1R,5S,6r)-3-(2-meth-oxyethyl)-3-azabicyclo[3.1.0]hex-an-6-yl)-1H-pyrazol-3-yl)-3-(trifluoro-methoxy)pyridin-2-amine]
0.0019	COCCN1C[C@@H]2[C@H](C1)[C@H]2c1cc(-c2cnc(N)c(C(F)(F)F)c2)nn1CC(F)(F)F [Compound 126, 5-(5-((1R,5S,6r)-3-(2-methoxyethyl)-3-azabicyclo[3.1.0]hexan-6-yl)-1-(2,2,2-trifluoroethyl)-1H-pyrazol-3-yl)-3-(trifluoromethyl)pyridin-2-amine]
0.0059	CC(C)n1nc(-c2cnc(N)c(C(F)(F)F)c2)cc1[C@H]1[C@@H]2CN(CCC#N)C[C@@H]21 [Compound 127, 3-((1R,5S,6r)-6-(3-(6-amino-5-(trifluoro-methyl)pyridin-3-yl)-1-isopropyl-1H-pyrazol-5-yl)-3-azabicyclo[3.1.0]hexan-3-yl)propanenitrile]
0.011	CC(C)n1nc(-c2cnc(N)c(C(F)(F)F)c2)cc1[C@H]1[C@@H]2CN(CC(C)(C)O)C[C@@H]21 [Compound 128, 1-((1R,5S,6r)-6-(3-(6-amino-5-(trifluoro-methyl)pyridin-3-yl)-1-isopropyl-1H-pyrazol-5-yl)-3-azabicyclo[3.1.0]hexan-3-yl)-2-methylpropan-2-ol]
0.0013	COCC(C)N1C[C@@H]2[C@H](C1)[C@H]2c1cc(-c2cnc(N)c(C(F)(F)F)c2)nn1C(C)C (stereo partly drawn) [Compound 129, 5-(1-isopropyl-5-((1R,5S,6r)-3-(1-meth-oxypropan-2-yl)-3-azabicyclo[3.1.0]hexan-6-yl)-1H-pyrazol-3-yl)-3-(trifluoromethyl)pyridin-2-amine]
0.0056	CC(C)OC(=O)N1C[C@@H]2[C@H](C1)[C@H]2c1cc(-c2cnc(N)c(C(F)(F)F)c2)nn1C(C)C [Compound 130, (1R,5S,6r)-isopropyl 6-(3-(6-amino-5-(trifluoromethyl)pyr-ridin-3-yl)-1-isopropyl-1H-pyrazol-5-yl)-3-azabicyclo[3.1.0]hexane-3-car-boxylate]
0.0044	CC(CC#N)N1C[C@@H]2[C@H](C1)[C@H]2c1cc(-c2cnc(N)c(C(F)(F)F)c2)nn1C(C)C (stereo partly drawn) [Compound 131, 3-((1R,5S,6r)-6-(3-(6-amino-5-(trifluoro-methyl)pyridin-3-yl)-1-isopropyl-1H-pyrazol-5-yl)-3-azabicyclo[3.1.0]hexan-3-yl)butanenitrile]
0.025	CC(C)n1nc(-c2cnc3[nH]cc(C#N)c3c2)cc1[C@H]1[C@@H]2CN(C3COC3)C[C@@H]21 [Compound 132, 5-(1-isopropyl-5-((1R,5S,6r)-3-(oxetan-3-yl)-3-azabicyclo[3.1.0]hexan-6-yl)-1H-pyrazol-3-yl)-1H-pyrrolo[2,3-b]pyridine-3-carbonitrile]
0.0004	CC(C)n1nc(-c2cnc3[nH]cc(C(F)(F)F)c3c2)cc1[C@H]1[C@@H]2CN(C3COC3)C[C@@H]21 [Compound 133, 5-(1-isopropyl-5-((1R,5S,6r)-3-(oxe-tan-3-yl)-3-azabicyclo[3.1.0]hexan-6-yl)-1H-pyrazol-3-yl)-3-(trifluorometh-yl)-1H-pyrrolo[2,3-b]pyridine]
0.0089	Nc1ncc(-c2cc([C@H]3[C@@H]4CN(C5COC5)C[C@@H]43)n(C3CCCC3)n2)cc1C(F)(F)F [Compound 135, 5-(1-cyclopentyl-5-((1R,5S,6r)-3-(oxetan-3-yl)-3-azabicyclo[3.1.0]hexan-6-yl)-1H-pyrazol-3-yl)-3-(trifluoromethyl)pyridin-2-amine]
0.024	Nc1ncc(-c2cc([C@H]3[C@@H]4CN(C5COC5)C[C@@H]43)n(C3CCCC3)n2)cc1Cl [Compound 136, 3-chloro-5-(1-cyclopentyl-5-((1R,5S,6r)-3-(oxetan-3-yl)-3-azabicyclo [3.1.0]hexan-6-yl)-1H-pyrazol-3-yl) pyridin-2-amine]
0.0074	Nc1ncc(-c2cc([C@H]3[C@@H]4CN(C5COC5)C[C@@H]43)n(C3CCCC3)n2)cc1OC(F)F [Compound 137, 5-(1-cyclopentyl-5-((1R,5S,6r)-3-(oxe-tan-3-yl)-3-azabicyclo[3.1.0]hexan-6-yl)-1H-pyrazol-3-yl)-3-(difluoro-methoxy)pyridin-2-amine]
0.031	N#Cc1cc(-c2cc([C@H]3[C@@H]4CN(C5COC5)C[C@@H]43)n(C3CCCC3)n2)cnc1N [Compound 138, 2-amino-5-(1-cyclopentyl-5-((1R,5S,6r)-3-(oxetan-3-yl)-3-azabicyclo[3.1.0]hexan-6-yl)-1H-pyrazol-3-yl)nicoti-nitrile]
0.037	Nc1ncc(-c2cc([C@H]3[C@@H]4CN(C5COC5)C[C@@H]43)n(C3CCCC3)n2)cc1C1CC1 [Compound 139, 5-(1-cyclopentyl-5-((1R,5S,6r)-3-(oxe-tan-3-yl)-3-azabicyclo[3.1.0]hexan-6-yl)-1H-pyrazol-3-yl)-3-cyclopro-pylpyridin-2-amine]
0.04	CC(C)n1nc(-c2cnc(N)c(Cl)c2)cc1[C@H]1[C@@H]2CN(C3COC3)C[C@@H]21 [Compound 140, 3-chloro-5-(1-isopropyl-5-((1R,5S,6r)-3-(oxetan-3-yl)-3-azabicyclo[3.1.0]hexan-6-yl)-1H-pyrazol-3-yl)pyridin-2-amine]
0.008	CC(C)n1nc(-c2cnc(N)c(OC(F)F)c2)cc1[C@H]1[C@@H]2CN(C3COC3)C[C@@H]21 [Compound 141, 3-(difluoromethoxy)-5-(1-isopropyl-5-((1R,5S,6r)-3-(oxetan-3-yl)-3-aza-bicyclo[3.1.0]hexan-6-yl)-1H-pyrazol-3-yl)pyridin-2-amine]
0.022	CC(C)n1nc(-c2cnc(N)c(C3CC3)c2)cc1[C@H]1[C@@H]2CN(C3COC3)C[C@@H]21 [Compound 142, 3-cyclopropyl-5-(1-isopropyl-5-((1R,5S,6r)-3-(oxetan-3-yl)-3-azabicyclo [3.1.0]hexan-6-yl)-1H-pyrazol-3-yl) pyridin-2-amine]
0.022	CC(C)n1nc(-c2cnc(N)c(C#N)c2)cc1[C@H]1[C@@H]2CN(C3COC3)C[C@@H]21 [Compound 144, 2-amino-5-(1-isopropyl-5-((1R,5 S,6r)-3-(oxetan-3-yl)-3-azabicyclo[3.1.0]hexan-6-yl)-1H-pyrazol-3-yl)nicotinonitrile]
0.0074	COc1cc(-c2cc([C@H]3[C@@H]4CN(C5COC5)C[C@@H]43)n(C(C)C)n2)cnc1N [Compound 145, 5-(1-isopropyl-5-((1R,5S,6r)-3-(oxetan-3-yl)-3-azabicyclo[3.1.0]hexan-6-yl)-1H-pyrazol-3-yl)-3-methoxy-pyridin-2-amine]
0.014	CC(C)Oc1cc(-c2cc([C@H]3[C@@H]4CN(C5COC5)C[C@@H]43)n(C(C)C)n2)cnc1N [Compound 146, 3-isopropoxy-5-(1-isopropyl-5-((1R,5S,6r)-3-(oxetan-3-yl)-3-azabicyclo [3.1.0]hexan-6-yl)-1H-pyrazol-3-yl) pyridin-2-amine]
0.018	Nc1ncc(-c2cc([C@H]3[C@@H]4CN(C5COC5)C[C@@H]43)n(C3CCC3)n2)cc1Cl [Compound 147, 3-chloro-5-(1-cyclobutyl-5-((1R,5S,6r)-3-(oxetan-3-yl)-3-azabicyclo[3.1.0]hexan-6-yl)-1H-pyrazol-3-yl)pyri-din-2-amine]
0.0012	Nc1ncc(-c2cc([C@H]3[C@@H]4CN(C5COC5)C[C@@H]43)n(C3CCC3)n2)cc1C(F)(F)F [Compound 148, 5-(1-cyclobutyl-5-((1R,5S,6r)-3-(oxetan-3-yl)-3-azabicyclo[3.1.0]hexan-6-yl)-1H-pyrazol-3-yl)-3-(trifluoromethyl)pyridin-2-amine]
0.0055	Nc1ncc(-c2cc([C@H]3[C@@H]4CN(C5COC5)C[C@@H]43)n(C3CCC3)n2)cc1OC(F)F [Compound 151, 5-(1-cyclobutyl-5-((1R,5S,6r)-3-(oxe-tan-3-yl)-3-azabicyclo[3.1.0]hexan-6-yl)-1H-pyrazol-3-yl)-3-(difluorometh-oxy)pyridin-2-amine]
